pIC50: −log10 of the molar value.
Biological target: T1, squalene epoxidase (Rattus norvegicus, UniProt P52020)
T1 construct: Microsomes, prepared by ultracentrifugation of homogenates of rat liver; from tissue; host or cells: rat liver microsomes, incubated with the high speed supernatant fraction
Experiment: Inhibition of squalene epoxidase in rat liver microsomes (3H-squalene incubation, TLC or HPLC radioactivity)
Type: biochemical
Settings: 37° C., 45 minutes, 60 μM 3H-squalene, 2.0 mM NADPH, 0.01 mM FAD, compounds tested at >0.0 to 100.0 μM
Procedure: The following assay is used to test compounds for their ability to inhibit 2,3-oxidosqualene lanosterol-cyclase (squalene cyclase) or squalene epoxidase. Microsomes, prepared by ultracentrifugation of homogenates of rat liver, are incubated at 37° C. for 45 minutes in the presence of 60 μM ^3 H-squalene, 2.0 mM NADPH, 0.01 mM FAD, and the high speed supernatant fraction from the microsomal preparation. Blanks, in which NADPH has been omitted, are run simultaneously with the test compounds. Compounds are tested at concentrations of >0.0 to 100.0 μM.
Following incubation the samples are saponified, standards are added to each sample, and then the reaction products are extracted into hexane. The hexane extracts are dried and then the dried extracts are redissolved in chloroform. […] Spots containing the reaction products are scraped from the TLC plates and counted for radioactivity in a scintillation counter. An IC50 is finally calculated.
Incubation reactions are stopped by the addition of chloroform:methanol, standards are added and the reaction products and standards are extracted into chloroform. […] Chromatographic peaks containing reaction products are monitored for radioactivity with a flow-through scintillation counter connected in series with the HPLC column. An IC50 (Inhibitory Concentration) is calculated based on the radioactivity in controls and samples. […]

T1 sequence (P52020 whole entry): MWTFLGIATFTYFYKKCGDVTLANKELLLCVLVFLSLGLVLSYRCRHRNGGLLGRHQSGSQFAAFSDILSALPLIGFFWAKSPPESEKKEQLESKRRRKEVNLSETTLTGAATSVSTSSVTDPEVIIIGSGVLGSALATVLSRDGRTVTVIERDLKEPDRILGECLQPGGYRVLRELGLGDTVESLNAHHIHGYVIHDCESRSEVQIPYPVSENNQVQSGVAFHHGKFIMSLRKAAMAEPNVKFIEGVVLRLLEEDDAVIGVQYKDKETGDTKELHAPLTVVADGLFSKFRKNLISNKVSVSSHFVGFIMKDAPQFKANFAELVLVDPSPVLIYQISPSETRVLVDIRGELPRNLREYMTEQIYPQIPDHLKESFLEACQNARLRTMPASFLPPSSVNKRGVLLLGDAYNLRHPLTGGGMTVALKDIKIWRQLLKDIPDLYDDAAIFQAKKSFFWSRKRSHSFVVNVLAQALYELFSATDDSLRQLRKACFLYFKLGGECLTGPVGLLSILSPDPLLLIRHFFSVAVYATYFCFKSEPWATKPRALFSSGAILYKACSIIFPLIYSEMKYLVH

pIC50: 4.38
Compound: CC(C)=CCC/C(C)=C/CC/C(C)=C/CC/C=C(\C)CC/C=C(\C)CCCOC1CC1 [Compound 1, 4,8,13,17,21-Pentamethyl-4,8,12,16,20-docosapentaen-l-ol cyclopropyl ether]

Source: patent US5051534A, “Novel cyclopropyl squalene derivatives and their use as inhibitors of cholesterol synthesis” (Merrell Dow Pharmaceuticals Inc., priority 1990, dated 1991)
